Here are results for 1 compound from patent publication US8557800B2, “Sphingosine kinase inhibitors” (Apogee Biotechnology Corporation, priority 2005, dated 2013).

For the assay, the system named is recombinant human SK. Put plainly: Inhibition of recombinant human SK, LC/MS/MS assay. Format: biochemical. As to conditions: 6 μg/ml compound. Put shortly: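 Enzyme incubated with unlabeled sphingosine and ATP (1 mM, as in the radiometric format) for 30 min, then stopped and extracted with acetonitrile. S1P quantified by C8 reverse-phase HPLC–MS/MS against C17 sphingosine and C17 S1P internal standards using calibration curves.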

For `O=C(NCc1ccncc1)C12CC3CC(C1)CC(c1ccc(Cl)cc1)(C3)C2` [Compound 62, 3-(4-Chloro-phenyl)-adamantane-1-carboxylic acid (pyridin-4-ylmethyl)-amide], the “Recombinant SK (% inhibition)” value came to 13%.
